Data taken from PMC10117049, “RND Pump-Mediated Efflux of Amotosalen, a Compound Used in Pathogen Inactivation Technology to Enhance Safety of Blood Transfusion Products, May Compromise Its Gram-Negative Anti-Bacterial Activity” (mSphere, 2023).
Where two headings read alike, the source gives them in different places.

Tests used:
[1] = system: Burkholderia cepacia; assay: microbe, parasite or virus in culture; set-up: Broth microdilution MIC in 384-well plates after UVA exposure (2 J/cm2), A600 growth read-out; details: Burkholderia cepacia, 20 h, read-out: Amotosalen Modal MIC (mM)a, Strain #=BEI NR-702; MDRb=Unknown; UVA 365 nm, 2 J/cm2; modal MIC of three or more replicates
Description: (§1) For MIC determination, bacterial stocks frozen at −80°C were streaked onto tryptic soy agar plates containing 5% sheep blood (Remel), and grown overnight at 35°C in ambient air. Colonies were then suspended in 0.9% saline to 0.5 McFarland, measured using a Densicheck (bioMérieux); diluted 1:300 in cation-adjusted Mueller-Hinton broth (BD); and dispensed into 384-well polystyrene plates (Greiner Bio-One) at 50 μL per well with the following exceptions: For MIC determinations with AG100AX strains containing pAdeC and pAdeAB plasmids, −80°C frozen stocks were inoculated directly into non-cation-adjusted Mueller-Hinton broth containing 100 μg/mL ampicillin, 50 μg/mL nourseothricin, 5 mM calcium chloride, and 5 mM magnesium chloride, with or without adeABC induction using 1% L-arabinose and 1.0 mM Isopropyl β-D-1-thiogalactopyranoside (IPTG), and grown overnight at 37°C in 15 mL conical tubes with continual rotation. Bacterial cultures were then adjusted to 0.5 McFarland and diluted 1:300 in the same medium, and dispensed as above. Induction of other cloned efflux pumps was with 1% L-arabinose (or 0.5% L-arabinose for cloned P. aeruginosa pumps) in the absence of supplemental divalent cations. Lastly, P. aeruginosa PAO1 strains were dispensed into 96-well plates to avoid skipped-well effects observed in 384-well plate format. Filled microplates were centrifuged at 1250 rcf for 4 min to ensure the entire inoculum was in continuity with the bottom of the well. Then, 2-fold doubling dilutions of stock solutions of amotosalen, AMT, or 8-MOP supplemented with 0.3% Tween 20 (Sigma-Aldrich) were dispensed into microwells using the HP D300 digital dispensing system (HP, Inc.), as previously described ([87][–][90]), and the microplates were mixed for 5 min on a microplate shaker to ensure complete mixing of psoralens with the inoculum. Microplates were then exposed to UV light in a UV Stratalinker 1800 (Stratagene), retrofitted with UV BL F8T5 CFL 12-inch UVA 365 nm Blacklight Bulbs (Coolspider), and calibrated according to manufacturer’s instructions with an UVA365 UV Light Meter (Amtast) for a total exposure of 2 Joules/cm^2 of UVA, to approximate exposure during platelet pathogen inactivation ([10]). Testing of control antibiotics was performed in an identical fashion, however, without UVA exposure. After incubation at 35°C for 20 h, the A600 was measured using a TECAN M1000 microplate reader. MICs were determined based on a growth inhibition A600 cutoff of 0.06, which is consistent with our prior determinations of Clinical and Laboratory Standards Institute reference standard equivalent, MIC determinations in 384-well plate format ([88], [90], [91]). […] The concentrations of MgCl2 and CaCl2 used were empirically determined previously to be optimal for efflux of minocycline and ethidium bromide (data not shown).

[2] = system: Stenotrophomonas maltophilia; assay: microbe, parasite or virus in culture; set-up: Broth microdilution MIC in 384-well plates after UVA exposure (2 J/cm2), A600 growth read-out; details: Stenotrophomonas maltophilia, 20 h, UVA 365 nm, 2 J/cm2, modal MIC of three or more replicates
Description: as §1

[3] = system: E. coli; assay: microbe, parasite or virus in culture; set-up: Broth microdilution MIC in 384-well plates after UVA exposure (2 J/cm2), A600 growth read-out; details: Escherichia coli, 20 h, UVA 365 nm, 2 J/cm2, modal MIC of three or more replicates
Description: as §1

[4] = system: K. pneumoniae; assay: microbe, parasite or virus in culture; set-up: Broth microdilution MIC in 384-well plates after UVA exposure (2 J/cm2), A600 growth read-out; details: Klebsiella pneumoniae, 20 h, MDRb=Yes, UVA 365 nm, 2 J/cm2, modal MIC of three or more replicates
Description: as §1

[5] = system: P. aeruginosa; assay: microbe, parasite or virus in culture; set-up: Broth microdilution MIC in 384-well plates after UVA exposure (2 J/cm2), A600 growth read-out; details: Pseudomonas aeruginosa, 20 h, UVA 365 nm, 2 J/cm2, modal MIC of three or more replicates
Description: as §1

[6] = system: Burkholderia cenocepacia; assay: microbe, parasite or virus in culture; set-up: Broth microdilution MIC in 384-well plates after UVA exposure (2 J/cm2), A600 growth read-out; details: Burkholderia cenocepacia, 20 h, MDRb=Unknown, UVA 365 nm, 2 J/cm2, modal MIC of three or more replicates
Description: as §1

[7] = system: Burkholderia multivorans; assay: microbe, parasite or virus in culture; set-up: Broth microdilution MIC in 384-well plates after UVA exposure (2 J/cm2), A600 growth read-out; details: Burkholderia multivorans, 20 h, read-out: Amotosalen Modal MIC (mM)a, Strain #=BEI NR-20533; MDRb=Unknown; UVA 365 nm, 2 J/cm2; modal MIC of three or more replicates
Description: as §1

[8] = system: A. baumannii; assay: microbe, parasite or virus in culture; set-up: Broth microdilution MIC in 384-well plates after UVA exposure (2 J/cm2), A600 growth read-out; details: Acinetobacter baumannii, 20 h, MDRb=Yes, UVA 365 nm, 2 J/cm2, modal MIC of three or more replicates
Description: as §1

[9] = biological target: AdeB (Acinetobacter baumannii, UniProt Q2FD70); assay: fluorescence polarization titration using the inherent fluorescence of amotosalen ([…]); type: binding
Chain of AdeB (Q2FD70 entry or part of it): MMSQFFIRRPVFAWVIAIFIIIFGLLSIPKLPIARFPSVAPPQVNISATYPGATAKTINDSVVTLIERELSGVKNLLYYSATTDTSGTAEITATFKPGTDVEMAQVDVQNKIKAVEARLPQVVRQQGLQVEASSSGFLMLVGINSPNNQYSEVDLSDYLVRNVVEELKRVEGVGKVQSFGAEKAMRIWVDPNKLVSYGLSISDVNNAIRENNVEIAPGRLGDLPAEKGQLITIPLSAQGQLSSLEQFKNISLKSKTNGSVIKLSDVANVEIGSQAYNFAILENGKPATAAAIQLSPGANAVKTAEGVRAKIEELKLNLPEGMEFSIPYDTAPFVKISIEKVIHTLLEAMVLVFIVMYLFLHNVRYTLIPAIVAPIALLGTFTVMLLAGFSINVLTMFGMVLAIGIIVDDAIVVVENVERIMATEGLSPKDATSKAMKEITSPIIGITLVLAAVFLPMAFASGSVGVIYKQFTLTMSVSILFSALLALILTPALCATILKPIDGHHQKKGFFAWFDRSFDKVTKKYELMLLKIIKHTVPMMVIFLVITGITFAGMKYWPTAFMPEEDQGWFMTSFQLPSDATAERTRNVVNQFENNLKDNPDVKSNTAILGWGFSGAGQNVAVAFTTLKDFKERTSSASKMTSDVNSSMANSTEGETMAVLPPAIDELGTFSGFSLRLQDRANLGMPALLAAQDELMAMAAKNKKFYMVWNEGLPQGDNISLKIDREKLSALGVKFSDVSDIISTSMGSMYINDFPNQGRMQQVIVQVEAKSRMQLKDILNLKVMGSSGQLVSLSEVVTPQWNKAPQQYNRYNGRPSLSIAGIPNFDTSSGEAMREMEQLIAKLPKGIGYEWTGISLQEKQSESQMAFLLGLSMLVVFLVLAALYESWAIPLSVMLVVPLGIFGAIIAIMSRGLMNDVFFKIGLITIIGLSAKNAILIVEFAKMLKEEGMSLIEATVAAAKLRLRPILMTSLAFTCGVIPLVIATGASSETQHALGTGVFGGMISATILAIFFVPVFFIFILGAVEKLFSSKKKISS

Question: What does the source list for `Cc1oc2c(C)c3oc(=O)cc(C)c3cc2c1COCCN` [amotosalen, 4′-(4-amino-2-oxa)butyl-4,5′,8-trimethylpsoralen]?
Answer: MIC [1]: > 0.256 mM; MIC ([2]; read-out: Amotosalen Modal MIC (mM)a, Strain #=JEK154): 0.256 mM; MIC ([2]; read-out: Amotosalen Modal MIC (mM)a, Strain #=JEK155): 0.064 mM; MIC ([3]; read-out: Amotosalen Modal MIC (mM)a, Strain #=ATCC 25922e, MDRb=No): 0.008 mM; MIC ([3]; read-out: Amotosalen Modal MIC (mM)a, Strain #=FDA-CDC 0114, MDRb=Yes): 0.128 mM; MIC ([3]; read-out: Amotosalen Modal MIC (mM)a, Strain #=FDA-CDC 0118, MDRb=Yes): 0.064 mM; MIC ([4]; read-out: Amotosalen Modal MIC (mM)a, Strain #=FDA-CDC 0113): 0.128 mM; MIC ([4]; read-out: Amotosalen Modal MIC (mM)a, Strain #=FDA-CDC 0146): 0.256 mM; MIC ([5]; read-out: Amotosalen Modal MIC (mM)a, Strain #=ATCC 27583e, MDRb=No): < 0.004 mM; MIC ([5]; read-out: Amotosalen Modal MIC (mM)a, Strain #=FDA-CDC 229, MDRb=Yes): > 0.256 mM; MIC ([5]; read-out: Amotosalen Modal MIC (mM)a, Strain #=FDA-CDC 230, MDRb=Yes): 0.128 mM; MIC ([5]; read-out: Amotosalen Modal MIC (mM)a, Strain #=FDA-CDC 232, MDRb=Yes): 0.256 mM; MIC ([6]; read-out: Amotosalen Modal MIC (mM)a, Strain #=BEI NR-701): 0.128 mM; MIC ([6]; read-out: Amotosalen Modal MIC (mM)a, Strain #=BEI NR-20535): 0.256 mM; MIC [7]: > 0.256 mM; MIC ([8]; read-out: Amotosalen Modal MIC (mM)a, Strain #=FDA-CDC 0292): 0.064 mM; MIC ([8]; read-out: Amotosalen Modal MIC (mM)a, Strain #=WRAIR 15067): 0.128 mM; Kd [9]: 27.9 ± 1.8 µM
